Common to all, as to format: biochemical
One assay concerns the target T1, Serotonin (5-HT) uptake (Rattus norvegicus, UniProt P31652).
T1 construct: The suspension was used as a crude synaptosome fraction; from tissue; host or cells: rat (male Wistar) frontal cortex, crude synaptosome fraction
Put plainly: Serotonin (5-HT) uptake inhibitory activity using rat brain synaptosome (frontal cortex). The note with it: tritium-labeled 5-HT 8 nM, 37° C. 10 minutes. The method, then: Measurement of Serotonin (5-HT) Uptake Inhibitory Activity of Test Compound Using Rat Brain Synaptosome
Male Wistar rats were decapitated, and their brains were removed and dissected to remove the frontal cortex. The separated frontal cortex was placed in a 20-fold weight of a 0.32 molarity (M) sucrose solution and homogenized with a potter homogenizer. The homogenate was centrifuged at 1000 g at 4° C. for 10 minutes, and the supernatant was further centrifuged at 20000 g at 4° C. for 20 minutes. […] The suspension was used as a crude synaptosome fraction.
(§1) Uptake reaction was performed using each well of a 96-well round-bottom plate and a 200 μl volume in total of a solution containing pargyline (final concentration: 10 μM) and ascorbic acid (final concentration: 0.2 mg/ml).
(§2) Specifically, a solvent, unlabeled 5-HT, and serially diluted test compounds were separately added to the wells, and the synaptosome fraction was added in an amount 1/10 of the final volume to each well and preincubated at 37° C. for 10 minutes. Then, a tritium-labeled 5-HT solution (final concentration: 8 nM) was added thereto to initiate uptake reaction at 37° C. 10 minutes later, the uptake reaction was terminated by suction filtration through a 96-well glass fiber filter plate. Furthermore, the filter was washed with a cold saline and then sufficiently dried. MicroScint-O (PerkinElmer Co., Ltd.) was added thereto, and the residual radioactivity on the filter was measured.
An uptake value obtained by the addition of only the solvent was defined as 100%, and an uptake value (nonspecific uptake value) obtained by the addition of the unlabeled 5-HT (final concentration: 10 μM) was defined as 0%. A 50%, inhibitory concentration was calculated from the test compound concentrations and inhibitory activities thereat.

In assay [1] the target is Norepinephrine (NE) uptake (Rattus norvegicus, UniProt Q9WTR4). Put plainly: Norepinephrine (NE) uptake inhibitory activity using rat brain synaptosome (hippocampus). On the procedure: Measurement of Norepinephrine (NE) Uptake Inhibitory Activity of Test Compound Using Rat Brain Synaptosome
Male Wistar rats were decapitated, and their brains were removed and dissected to remove the hippocampus. The separated hippocampus was placed in a 20-fold weight of a 0.32 molarity (M) sucrose solution and homogenized with a potter homogenizer. The homogenate was centrifuged at 1000 g at 4° C. for 10 minutes, and the supernatant was further centrifuged at 20000 g at 4° C. for 20 minutes. The pellet was suspended in an incubation buffer (20 mM HEPES buffer (pH 7.4) containing 10 mM glucose, 145 mM sodium chloride, 4.5 mM potassium chloride, 1.2 mM magnesium chloride, and 1.5 mM calcium chloride). The suspension was used as a crude synaptosome fraction.
as §1
as §2, with “unlabeled NE,” for “unlabeled 5-HT,”, “tritium-labeled NE” for “tritium-labeled 5-HT”, “concentration: 12” for “concentration: 8”, “C. Ten” for “C. 10”
An uptake value obtained by the addition of only the solvent was defined as 100%, and an uptake value (nonspecific uptake value) obtained by the addition of the unlabeled NE (final concentration: 10 μM) was defined as 0%. A 50% inhibitory concentration was calculated from the test compound concentrations and inhibitory activities thereat.

The target in the next assay is T2, Dopamine (DA) uptake (Rattus norvegicus, UniProt P23977).
T2 construct: The suspension was used as a crude synaptosome fraction; from tissue; host or cells: rat (male Wistar) corpus striatum, crude synaptosome fraction
T2 sequence (P23977 whole entry): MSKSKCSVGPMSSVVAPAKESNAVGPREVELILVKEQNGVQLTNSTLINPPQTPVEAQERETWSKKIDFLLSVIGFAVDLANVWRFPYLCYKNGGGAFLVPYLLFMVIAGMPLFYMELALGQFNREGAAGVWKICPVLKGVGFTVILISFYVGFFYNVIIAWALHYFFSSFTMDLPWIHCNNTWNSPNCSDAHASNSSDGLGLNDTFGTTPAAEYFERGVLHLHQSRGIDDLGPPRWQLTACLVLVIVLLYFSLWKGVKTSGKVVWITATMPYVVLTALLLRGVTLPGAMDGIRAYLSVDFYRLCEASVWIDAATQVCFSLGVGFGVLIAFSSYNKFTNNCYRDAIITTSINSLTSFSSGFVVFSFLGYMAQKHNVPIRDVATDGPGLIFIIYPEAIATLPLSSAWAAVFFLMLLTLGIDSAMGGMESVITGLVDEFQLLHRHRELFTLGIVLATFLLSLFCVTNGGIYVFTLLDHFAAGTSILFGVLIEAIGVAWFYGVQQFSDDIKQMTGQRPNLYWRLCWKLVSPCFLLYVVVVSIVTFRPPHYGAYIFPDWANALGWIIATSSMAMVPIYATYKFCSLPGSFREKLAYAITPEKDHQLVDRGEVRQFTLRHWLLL
Put plainly: Dopamine (DA) uptake inhibitory activity using rat brain synaptosome (corpus striatum). To be noted: tritium-labeled DA 2 nM, 37° C. ten minutes, read-out: 50% Inhibitory concentration. The method, then:
Measurement of Dopamine (DA) Uptake Inhibitory Activity of Test Compound Using Rat Brain Synaptosome
Male Wistar rats were decapitated, and their brains were removed and dissected to remove the corpus striatum. The separated corpus striatum was placed in a 20-fold weight of a 0.32 molarity (M) sucrose solution and homogenized with a potter homogenizer. The homogenate was centrifuged at 1000 g at 4° C. for 10 minutes, and the supernatant was further centrifuged at 20000 g at 4° C. for 20 minutes. […] The suspension was used as a crude synaptosome fraction.
Uptake reaction was performed using each well of a 96-well round-bottom plate and a 200 μl volume in total of a solution containing pargyline (final concentration: 10 μM) and ascorbic acid (final concentration: 0.2 mg/mil).
as §2, with “unlabeled DA,” for “unlabeled 5-HT,”, “tritium-labeled DA” for “tritium-labeled 5-HT”, “concentration: 2” for “concentration: 8”, “C. Ten” for “C. 10”
An uptake value obtained by the addition of only the solvent was defined as 100%, and an uptake value (nonspecific uptake value) obtained by the addition of the unlabeled DA (final concentration: 10 μM) was defined as 0%. A 50% inhibitory concentration was calculated from the test compound concentrations and inhibitory activities thereat.

[2] abbreviates: read-out: 50% Inhibitory concentration.
Setting [3] is: tritium-labeled NE 12 nM, 37° C. ten minutes, read-out: 50% inhibitory concentration.

Molecules are shown by their SMILES. Read-outs that look alike come from different tables or passages of the source.

T1 sequence (P31652 whole entry): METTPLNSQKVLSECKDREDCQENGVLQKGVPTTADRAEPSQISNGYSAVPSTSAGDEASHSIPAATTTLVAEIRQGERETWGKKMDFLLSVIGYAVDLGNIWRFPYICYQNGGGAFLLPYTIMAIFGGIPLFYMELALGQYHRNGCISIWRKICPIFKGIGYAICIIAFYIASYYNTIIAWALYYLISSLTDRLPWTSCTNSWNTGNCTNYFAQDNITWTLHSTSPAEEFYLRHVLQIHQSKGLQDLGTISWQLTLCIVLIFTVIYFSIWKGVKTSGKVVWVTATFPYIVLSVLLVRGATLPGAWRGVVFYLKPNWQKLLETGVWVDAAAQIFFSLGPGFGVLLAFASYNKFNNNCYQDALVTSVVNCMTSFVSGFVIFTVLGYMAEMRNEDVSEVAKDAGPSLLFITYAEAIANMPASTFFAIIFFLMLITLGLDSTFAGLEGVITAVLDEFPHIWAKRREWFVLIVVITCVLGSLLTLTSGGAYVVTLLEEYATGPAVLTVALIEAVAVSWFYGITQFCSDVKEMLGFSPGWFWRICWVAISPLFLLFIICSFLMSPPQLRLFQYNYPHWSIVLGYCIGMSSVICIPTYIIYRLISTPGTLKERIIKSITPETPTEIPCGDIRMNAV

As to `CC1(C)CN(c2ccc(F)c3[nH]ccc23)[C@H]2CCCC[C@@H]2N1` [Example 895], the values for the IC50 (on Serotonin (5-HT) uptake (setting [2]); in assay [1] (setting [3]); on Dopamine (DA) uptake) were 5.4 nM, 3 nM and 19.9 nM, respectively.
With `CC1(C)CN(c2ccc3sccc3c2)C2COCC2N1` (stereo not drawn) [Example 8], the IC50 at Serotonin (5-HT) uptake (setting [2]) amounted to 2.4 nM; in assay [1] (setting [3]), 60.9 nM; on Dopamine (DA) uptake it was 378 nM.
Consider `COc1cc2ccc(N3CC(C)(C)N[C@@H]4CCCC[C@H]43)cc2cc1C#N` [Example 962], for which the IC50 was 18.7 nM at Serotonin (5-HT) uptake (setting [2]), 31.9 nM in assay [1] (setting [3]) and 69.5 nM on Dopamine (DA) uptake.
As for `CC1(C)CN(c2cccc3ccccc23)[C@H]2CCCC[C@H]2N1` [Example 118], the IC50 on Serotonin (5-HT) uptake (setting [2]) was determined as 13.7 nM; in assay [1] (setting [3]) it was 3.7 nM; at Dopamine (DA) uptake it was 8.3 nM.
With `CC1(C)CCN(c2ccc(Cl)c(Cl)c2)[C@@H]2CCCC[C@@H]2N1` (relative stereo) [Example 322], the IC50 at Serotonin (5-HT) uptake (setting [2]) is 9.6 nM; in assay [1] (setting [3]), 40.1 nM; on Dopamine (DA) uptake it was 67.7 nM.
Consider `CC1(C)CN(c2ccc(O)cc2)[C@H]2CCCC[C@H]2N1` [Example 805], for which the IC50 came out at 42.6 nM at Serotonin (5-HT) uptake (setting [2]), 30.4 nM in assay [1] (setting [3]) and 83.8 nM on Dopamine (DA) uptake.
As to `CC1(C)CN(c2cccc3sccc23)[C@@H]2CCCC[C@@H]2N1` (relative stereo) [Example 27], the IC50 on Serotonin (5-HT) uptake (setting [2]) amounted to 5.8 nM; in assay [1] (setting [3]) it was 0.9 nM; on Dopamine (DA) uptake, 31.9 nM.
In the case of `CN1[C@@H]2CCCC[C@@H]2N(c2cccc3sccc23)CC1(C)C` [Example 125], the figures for the IC50 (on Serotonin (5-HT) uptake (setting [2]); in assay [1] (setting [3]); on Dopamine (DA) uptake) were 4.7 nM, 1.9 nM and 5.2 nM, respectively.
In the same order, the values of `COc1c(F)cc(N2CC(C)(C)N[C@H]3CCCC[C@@H]32)cc1F` [Example 233] are 7.4 nM, 3.7 nM and 38.8 nM.
Consider `CC1(C)CN(c2ccc(F)c3occc23)[C@H]2CCCC[C@@H]2N1` [Example 192], for which the IC50 on Serotonin (5-HT) uptake (setting [2]) was 2.9 nM; in assay [1] (setting [3]) it was 3.6 nM; at Dopamine (DA) uptake it was 8.6 nM.
On to `CC1(C)CN(c2ccc3[nH]c(C#N)cc3c2)[C@@H]2CCCC[C@@H]2N1` [Example 654], for which the IC50 on Serotonin (5-HT) uptake (setting [2]) turned out to be 1.5 nM; in assay [1] (setting [3]) it was 1 nM; on Dopamine (DA) uptake, 9 nM.
On to `Cn1c(C#N)cc2cc(N3CC(C)(C)N[C@@H]4CCCC[C@@H]43)ccc21` [Example 150, 5-((4aR,8aS)-3,3-dimethyldecahydroquinoxalin-1-yl)-1-methyl-1H-indole-2-carbonitrile], for which the IC50 on Serotonin (5-HT) uptake (setting [2]) is 5.4 nM; in assay [1] (setting [3]), 23.6 nM; at Dopamine (DA) uptake, 200 nM.
In the same order, the values of `C[C@@H]1CN(c2ccc3sccc3c2)[C@H]2CCCC[C@@H]2N1` [Example 1121] are 8.5 nM, 0.7 nM and 29.9 nM.
In the same order, the values of `CC1(C)CN(c2ccc3[nH]c(C#N)cc3c2)[C@H]2CCCC[C@H]2N1` [Example 781] are 6.2 nM, 3 nM and 5.2 nM.
The corresponding values for `C[C@@H]1CN(c2cccc3ccsc23)[C@@H]2CCCC[C@@H]2N1` (relative stereo) [Example 1113] are 5.4 nM, 1.7 nM and 26 nM.
With `CC1(C)CN(c2ccc(Cl)c(Cl)c2)[C@H]2CCCC[C@@H]2N1` [Example 246], the IC50 on Serotonin (5-HT) uptake (setting [2]) was found to be 6.8 nM; in assay [1] (setting [3]), 3.8 nM; on Dopamine (DA) uptake, 8.8 nM.
`CC1(C)CN(c2ccc(Cl)c(Cl)c2)[C@H]2CCC[C@@H]2N1` (racemic) [Example 15]: the IC50 at Serotonin (5-HT) uptake (setting [2]) worked out at 12.5 nM; in assay [1] (setting [3]) it was 11 nM; on Dopamine (DA) uptake, 68.4 nM.
With `C[C@@H]1CN(c2ccc(OC(F)F)c(F)c2)[C@H]2CCCC[C@@H]2N1` [Example 1534], the IC50 on Serotonin (5-HT) uptake (50% Inhibitory concentration) is 38.1 nM; in assay [1] (read-out: 50% inhibitory concentration, tritium-labeled NE 12 nM, 37° C. ten minutes) it was 4 nM; on Dopamine (DA) uptake it was 215 nM.
Turning to `CC1(C)CN(c2ccc(OC(F)F)c(Cl)c2)[C@@H]2CCCC[C@H]2N1` [Example 1026], the IC50 at Serotonin (5-HT) uptake (setting [2]) stood at 2.4 nM; in assay [1] (setting [3]), 4.2 nM; on Dopamine (DA) uptake, 12.3 nM.
As for `Cc1c(Cl)cccc1N1CC(C)(C)N[C@H]2CCCC[C@H]21` [Example 468], the IC50 on Serotonin (5-HT) uptake (setting [2]) amounted to 3.8 nM; in assay [1] (setting [3]), 7.5 nM; on Dopamine (DA) uptake, 54 nM.
In the case of `CN1[C@H]2CCCC[C@@H]2N(c2ccc3sccc3c2)CC1(C)C` [Example 187], the IC50 stood at 5.8 nM on Serotonin (5-HT) uptake (setting [2]), 6 nM in assay [1] (setting [3]) and 12.1 nM on Dopamine (DA) uptake.
In the same order, the values of `CC1(C)CN(c2ccccc2Cl)[C@H]2CCCC[C@H]2N1` [Example 165] are 12 nM, 2.4 nM and 6.8 nM.
For the compound `CC1(C)CN(c2ccc(Cl)c(Cl)c2)[C@@H]2CCCCC[C@@H]2N1` (relative stereo) [Example 346], the IC50 amounted to 10 nM on Serotonin (5-HT) uptake (setting [2]), 8.8 nM in assay [1] (setting [3]) and 7.8 nM at Dopamine (DA) uptake.
In the same order, the values of `CC1(C)CN(c2ccc3ncsc3c2)[C@H]2CCCC[C@@H]2N1` (racemic) [Example 405] are 6.4 nM, 4.4 nM and 74.8 nM.
The corresponding values for `CC1(C)CN(c2ccc(F)c3[nH]ccc23)[C@H]2CCCC[C@H]2N1` [Example 780] are 6.5 nM, 0.6 nM and 4.3 nM.
The corresponding values for `CC1(C)CN(c2ccc(F)c3occc23)[C@@H]2CCCC[C@@H]2N1` [Example 77, (4aS,8aR)-1-(7-fluorobenzofuran-4-yl)-3,3-dimethyldecahydroquinoxaline] are 0.8 nM, 3.9 nM and 41.2 nM.
For the compound `CC1(C)CN(c2ccc3[nH]c(C#N)cc3c2)[C@H]2CCCC[C@@H]2N1` [Example 582, (4aS,8aS)-1-(2-cyano-1H-indol-5-yl) 3,3-dimethyldecahydroquinoxaline], the IC50 on Serotonin (5-HT) uptake (setting [2]) came to 4.1 nM; in assay [1] (setting [3]), 6 nM; on Dopamine (DA) uptake, 68.8 nM.
Turning to `C[C@@H]1CN(c2ccc3ncsc3c2)[C@H]2CCCC[C@@H]2N1` [Example 1326], the IC50 on Serotonin (5-HT) uptake (setting [2]) was 37.8 nM; in assay [1] (setting [3]), 1.8 nM; at Dopamine (DA) uptake, 91.8 nM.
For the compound `CN1[C@H]2CCCC[C@@H]2N(c2ccc(Cl)c(Cl)c2)CC1(C)C` [Example 247], the IC50 at Serotonin (5-HT) uptake (setting [2]) amounted to 42.8 nM; in assay [1] (setting [3]) it was 6.6 nM; at Dopamine (DA) uptake, 8.7 nM.

These data come from patent US11273168B2, “Methods of treating anxiety by administering a substituted quinolone” (OTSUKA PHARMACEUTICAL CO., LTD., priority 2010, dated 2022).
